This is an account of results in US6369109B1, “Betulinic acid and derivatives thereof useful for the treatment of neuroectodermal tumor” (Deutsches Krebsforschungszentrum Stiftung des Offentlichen …, priority 1998, dated 2002).

Assay [1] deals with SH-EP neuroblastoma cells. The assay is described as follows: Mitochondrial potential (DiOC6(3)), ROS (HE) and lipid peroxidation (NAO) by flow cytometry. It counts as cell-based, human. The note with it: FIG. 12B. The protocol:
The cationic lipophilic fluorochrome DiOC6(3)(460 ng/ml, Molecular Probes, Eugene, Oreg.) was used to measure the Δ¥m. HE(126 ng/ml. Molecular probes) was used to determine ROS generation, and NAO (94 ng/ml, Molecular Probes) was used to determine lipid peroxidation. Kroemer et al, 1997, Immunol. Today. 18:44-51. Cells were incubated for 12 min at 37° C. in the presence of the fluorochromes, washed in PBS/1% FCS, and immediately analyzed by flow cytometry (FACScan, Becton Dickinson). DiOC6(3) and NAO fluorescence were recorded in fluorescence 1; He fluorescence was assessed in fluorescence 3. The percentage of cells with low mitochondrial potential or enhanced ROS production was calculated in comparison to untreated control cells.
SH-EP neuroblastoma cells were treated with 10 μg/ml betulinic acid for the indicated times. Cells were stained with the fluorochrome DiOC6(3) to determine ΔΨm and with HE to determine ROS generation and analyzed by flow cytometry. Fold increase in cells with low ΔΨm [DiOC6(3)^low] or with enhanced ROS production (HE+) is shown.
SH-EP neuroblastoma cells treated with 10 μg/ml […] for 24 h (heavy line) or control cells (thin line) were strained with NAO to assess oxidized cardiolipin and analyzed by flow cytomety.
For determination of mitochondrial membrane potential, cells (5×10^5/ml) were incubated with 3,3′-dihexyloxacarbocyanide iodide (DiOC6(3), 40 nM, Molecular Probes, Inc., Eugene, Oreg.) for 15 min at 37° C. and analyzed on a flow cytometer (FACScan) (Zamzarni et al., 1996 J. Exp. Med. 183:1533-44). For cell sorting, cells were stained with DiOC6(3) and sorted into DiOC6(3)^high and DiOC6(3)^low cells on a cytofluorometer (FACS Vantage, Becton Dickinson). As a control, cells were treated with the uncoupling agent carbonyl cyanide m-chlorophenylhydrazone (mCICCP, 200 μM, Sigma).
(§1) SHEP cells transfected with Bcl-2 or BCl-XL or a neomycin resistance vector only (Neo) were treated with 0.5 μg/ml Doxorubicin or 10 μg/ml Betulinic acid for 48 h (A) or 24 h (B and C). Cells transfected with a neomycin resistance vector only (Neo) were treated in the presence or absence of 50 μm BA or 60 μm zVAD-fmk. Nuclear apoptosis was determined by FACS analysis or propidium iodide-stained DNA content in intact cells (A) or in a CFS incubating isolated nuclei with mitochondria from cells treated with Doxo or betulinic acid (C). ΔΨm was determined by staining cells with the potential-sensitive fluorochrome DiOC6(3) (B).

Assay [2] deals with SH-EP neuroblastoma cells. The assay is described as follows: Specific apoptosis, FACS analysis of propidium iodide-stained nuclei. The note with it: for effect of CD95 blockage by F(ab′)2 anti-APO-1 on drug-induced apoptosis: 10 μg/ml antibody fragments 1 h before drug, 10 μg/ml betulinic acid, 50 μg/ml VP-16, 10 μg/ml cisplatinum, 0.5 μg/ml doxorubicin, 72 h, FIG. 3B. Format: cell-based, human. The method, then: Quantification of DNA fragmentation was performed by FACS analysis of propidium iodide stained nuclei as described in Nicoletti et al, 1991, J. Immunol. Methods. 139: 271-279. Cells were analyzed for DNA content by flow. cytometry (FACScan, Becton Dickinson, Heidelberg, Germany) using CELLQuest software. Early apoptotic changes were identified by staining with biotinylated annexin V (Bender Med Systems, Vienna, Austria) following the manufacturer's instructions. Annexin V binds to exposed phosphatidylserine on the surface of apoptotic cells. Koopman et al, 1994, Blood. 84:1415-1420. Cells were analyzed by flow cytometry (FAC-Scan. Becton Dickinson) using CELLQuest software.
Cells were treated with 10 μg/ml betulinic acid for 72 h. Apoptosis was assessed by FACS analysis of propidium iodide-stained nuclei. Percentage of specific apoptosis was calculated as follows: experimental apoptosis (%) −spontaneous apoptosis in medium (%)/[100%−spontaneous apoptosis in medium (%)]×100%. […]
Cells were incubated for indicated times with doxorubicin, betulinic acid or anti-APO-1 and harvested by trypsinization using 0.05% trypsin and 0.02% EDTA without Ca^2+and Mg^2+(Life Technologies, Inc.). Quantification of DNA fragmentation was performed by FACS analysis of propidium iodide stained nuclei as previously described in Nicoletti et al., J. ImmunoL Methods 139:271-279, using CELLQuest software (Becton Dickinson, Heidelberg, Germany).
as §1
A general note: A flow cytometer gives signals particle by particle.

Each structure is given as a SMILES string. Entries after “also recorded” stand apart in the source; their conditions may differ. Residues, ends and D or L forms follow the SMILES beside them. *: point of attachment. Cbz = O=C(OCc1ccccc1)*; CH2F = FC*

As for `CO[C@H](C/C=C\C=C\CC/C=C/C[C@H](C)/C=C/C(=C\C(=O)O)CC(=O)O)/C(C)=C\C=C(/C)C(=O)O` [bongkrekic acid], in assay [1] (50 μM bongkrekic acid, doxorubicin or betulinic acid), the “effect of inhibitor on drug-triggered ΔΨm loss” value was “inhibited drug-triggered nuclear fragmentation and ΔΨm loss”. Moreover, the “effect of CD95 blockage by F(ab′)2 anti-APO-1 on drug-induced apoptosis” value in assay [2] was “did not inhibit”. For the same compound, in assay [2] (50 μM bongkrekic acid, doxorubicin or betulinic acid, FIG. 12A), the “effect of inhibitor on drug-triggered nuclear fragmentation” value is “inhibited drug-triggered nuclear fragmentation and ΔΨm loss”.

In the case of `COC(=O)C[C@H](NC(=O)[C@H](C)NC(=O)[C@@H](NC(=O)OCc1ccccc1)C(C)C)C(=O)CF` [zVAD-fmk, benzyloxycarbonyl-Val-Ala-Asp-Fluoromethylketone] (Cbz-Val-Ala-Asp(OMe)-CH2F), in assay [1] (60 μM zVAD-fmk), the “effect of inhibitor on betulinic acid-induced ΔΨm dissipation” value was “had no effect” and the “effect of inhibitor on doxorubicin-induced loss of ΔΨm” value is “both inhibited”. In addition, the “effect of inhibitor on betulinic acid-induced apoptosis” value in assay [2] (60 μM zVAD-fmk, 10 μg/ml betulinic acid 72 h, FIG. 2D) is on record as “almost completely abrogated apoptosis”. In assay [2] (60 μM zVAD-fmk, FIG. 12A), the “effect of inhibitor on betulinic acid-induced nuclear fragmentation” value is on record as “only affected the betulinic acid-induced nuclear fragmentation” and the “effect of inhibitor on doxorubicin-induced nuclear fragmentation” value is recorded as “both inhibited”.

Regarding `COc1cccc2c1C(=O)c1c(O)c3c(c(O)c1C2=O)C[C@@](O)(C(=O)CO)C[C@@H]3O[C@H]1C[C@H](N)[C@H](O)[C@H](C)O1` [doxorubicin], the “loss of ΔΨm in intact SHEP cells” value in assay [1] (0.5 μg/ml doxorubicin or 10 μg/ml betulinic acid, 24 h) was “induced loss of ΔΨm and nuclear fragmentation”. Further, in assay [2] (0.5 μg/ml doxorubicin or 10 μg/ml betulinic acid, 48 h, FIG. 12A), the “nuclear fragmentation in intact SHEP cells” value was “induced loss of ΔΨm and nuclear fragmentation”. Moreover, the “effect of CD95 blockage by F(ab′)2 anti-APO-1 on drug-induced apoptosis” value in assay [2] is reported as “significantly blocked; also recorded: markedly reduced”.
